Converted amounts (≈) assume the structure as drawn. Where a SMILES comes first, the peptide text is derived from it. The star is where a group is joined. X2 = CC1(C)C(=CC=CC=CC2=[N+](CCCCS(=O)(=O)[O-])c3ccc(S(=O)(=O)O)cc3C2(C)C)N(CCCCCC(=O)NCCN2C(=O)CC(*)C2=O)c2ccc(S(=O)(=O)O)cc21

This is an account of results in article PMC10296720, “A Truncated 14-Amino-Acid Myelin Protein-Zero-Targeting Peptide for Fluorescence-Guided Nerve-Preserving Surgery” (Biomolecules, 2023).

Data set [1] addresses myelin protein zero (Homo sapiens) (UniProt P25189). The settings on record: cited from earlier work.
Data set [2] concerns P0-expressing RT4 D6P2T myelinating Schwannoma cells. As to the kind of experiment: P0 staining and co-localization via fluorescence confocal microscopy. The format is cell-based. The settings on record: 1 μM tracer, 1 h at 4 °C. How it is done:
All chemicals were received from Actu-All Chemical (Oss, The Netherlands), Sigma Aldrich (St. Louis, MO, USA), Tokyo Chemical Industry (Tokyo, Japan), Biosolve BV (Valkenswaard, The Netherlands), and VWR Chemicals (Solon, OH, USA) and used without further purification. DMF and DMSO were dried over 4 Å molecular sieves for at least 24 h prior to use. Preparative high-pressure liquid chromatography (prep-HPLC) was performed on a Waters HPLC system (Waters Chromatography B.V., Etten-Leur, The Netherlands) using a 2545 quaternary gradient module pump and a 2489 UV detector. […] Absorption spectrometry was performed using a UV1280 UV–vis spectrometer (Shimadzu, Kyoto, Japan), and fluorescence spectrometry was performed using an LS55 (Perkin Elmer, Waltham, MA, USA). Fluorescence confocal imaging was performed using an SP8 WLL confocal microscope (Leica Microsystems, Wetzlar, Germany). The obtained images were analyzed using Leica Confocal Software (Leica Microsystems). The mean fluorescence intensity values per sample were measured using an LSRII flow cytometer (BD Biosciences, Franklin Lakes, NJ, USA) with APC-A settings (635 nm laser and 750 nm long-pass filter) for a Cy5 dye. […]
Semi-quenatitative assessment of the level of co-staining within the fluorescence […]

A further data set is described as follows: Solubility. In kind it is physicochemical. The note with it: as previously described (refs 27, 31, 36). The protocol: (§1) Determination of the chemical and photophysical properties (LogP, solubility, serum binding, net charge, and brightness) was performed as previously described.
A short description of a further data set: Brightness (in HSA). In kind it is physicochemical, human. The settings on record: in human serum albumin. The protocol:
as §1

The next data set can be described thus: LogP. In kind it is physicochemical. The settings on record: as previously described (refs 27, 31, 36). The protocol:
as §1

The next data set is described as follows: Serum binding. The format is in vitro ADME. The note with it: as previously described (refs 27, 31, 36). How it is done: as §1

myelin protein zero (Homo sapiens), sequence (P25189 30-153): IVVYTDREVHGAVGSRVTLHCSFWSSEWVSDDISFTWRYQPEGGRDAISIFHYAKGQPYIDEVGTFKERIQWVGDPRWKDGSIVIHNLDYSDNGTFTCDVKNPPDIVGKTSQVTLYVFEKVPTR

As usually defined, the Kd is the concentration at which binding is half-saturated. As to “Cy5-P0101-125 101-125 (from UniProt P25189)”, in data set [1], the Kd is 104 nM.

The Solubility is the dissolved amount per volume that the medium holds. In the case of “KNPPDIVGKTSQVTLYVFEKVPTRY [Cy5-P0_101–125]”, in data set [2] (confocal microscopy, in words), the “P0-related staining (pattern and intensity)” value is given as “in agreement with the location of P0 on the membrane”. In “Solubility”, this compound returned a Solubility of 172 µM. Besides, the “Brightness (in HSA)” value in “Brightness (in HSA)” was 67,760.

The LogP is a log measure of how a compound divides between an organic and an aqueous phase. In general, fraction unbound refers to free concentration divided by total concentration. With `CC[C@H](C)[C@H](NC(=O)[C@H](CC(=O)O)NC(C)=O)C(=O)N[C@H](C(=O)NCC(=O)N[C@@H](CCCCN)C(=O)N[C@H](C(=O)N[C@@H](CO)C(=O)N[C@@H](CCC(N)=O)C(=O)N[C@H](C(=O)N[C@H](C(=O)N[C@@H](CC(C)C)C(=O)N[C@@H](Cc1ccc(O)cc1)C(=O)N[C@H](C(=O)N[C@@H](Cc1ccccc1)C(=O)N[C@@H](CCC(=O)O)C(=O)N[C@@H](CCCCN)C(=O)N[C@H](C(=O)N1CCC[C@H]1C(=O)N[C@H](C(=O)N[C@@H](CCCNC(=N)N)C(=O)N[C@@H](Cc1ccc(O)cc1)C(=O)N[C@@H](CSC1CC(=O)N(CCNC(=O)CCCCCN2C(=CC=CC=CC3=[N+](CCCCS(=O)(=O)[O-])c4ccc(S(=O)(=O)O)cc4C3(C)C)C(C)(C)c3cc(S(=O)(=O)O)ccc32)C1=O)C(N)=O)[C@@H](C)O)C(C)C)C(C)C)[C@@H](C)O)C(C)C)[C@@H](C)O)C(C)C` (stereo partly drawn) [Cy5-P0_105–125] (Ac-DIVGKTSQVTLYVFEKVPTRYC(X2)-NH2; N-terminus and C-terminus assumed), in data set [2] (N = 3 per tracer, semi-quantitative, Image J), the “Co-localization factor (scale: 0-1), Cy5 vs Lysosomes” value was “low”. This compound displayed a Solubility in “Solubility” of 9 µM (≈ 31.3 µg/mL). The LogP in the data set “LogP” was −0.60 ± 0.04. Besides, the “Brightness (in HSA)” value in the data set “Brightness (in HSA)” is recorded as 157,300. In “Serum binding”, this compound gave a fraction unbound of 0.44.
